The test is described as follows: mitochondrial fusion inhibitors, confirmation, cell-based, chemical genetic, wild-type and mutant (AID 1361). The conditions noted are these: Cell-based mitochondrial fusion phenotype, imaging.
Where [1] appears, read: mutant cells, measured here: mutant cell line IC50.

Calls of active or inactive are those of the source. How the calls were made is not given here.

Here are results for 67 compounds from PubChem BioAssay AID1361 (SRMLSC, 2008).

Broadly, the IC50 is the concentration at which inhibition is half-maximal. For the compound `COc1ccc(Br)cc1CN(C)CC(=O)Nc1ccccc1Cl`, the 50% inhibitory concentration (IC50) (WT cells) was 19.8 µM and the IC50 under setting [1] was greater than 25 µM.
Regarding `Cc1cc(Cl)ccc1OCC(=O)Nc1nc(-c2cccs2)cs1`, the IC50 by setting is: (WT cells) 13.4 µM (inactive); under setting [1], 9.8 µM.
Regarding `O=C(COC(=O)c1ccccc1C(=O)c1ccc(Cl)c([N+](=O)[O-])c1)NC1CCCCCC1`, the IC50 is > 25 µM (inactive) (WT cells) and greater than 25 µM under setting [1].
For `CCCCC(c1nnnn1CC1CCCO1)N1CCN(c2cc(Cl)ccc2C)CC1` (centres undefined), the IC50 reads like this: (WT cells) 21.6 µM; under setting [1], greater than 25 µM.
On to `CCCOP(=O)(OCCC)C(Nc1ccc(C(C)C)cc1)c1ccc([N+](=O)[O-])cc1` (centres undefined), for which the IC50 is, setting by setting: (WT cells) 13.1 µM; under setting [1], greater than 25 µM.
The corresponding values for `NC(=O)COC(=O)c1ccc(Cl)c(S(=O)(=O)N(Cc2ccccc2)c2ccc(Cl)cc2)c1` are 18.1 µM and greater than 25 µM.
Turning to `CN(C)S(=O)(=O)c1ccc(C(=O)Nc2nnc(-c3ccc4c(c3)CCCC4)o2)cc1`, the half-inhibitory concentration (IC50) (WT cells) was 12.8 µM and the IC50 under setting [1] worked out at 22 µM.
With `Cc1ccccc1S(=O)(=O)c1c(C)cc(C)n(CC(C)C)c1=O`, the IC50 by setting is: (WT cells) > 25 µM (inactive); under setting [1], greater than 25 µM.
Take `Cc1c(C)c2ccc(OC3CCCCC3=O)cc2oc1=O` (centres undefined): the IC50 (WT cells) was > 25 µM (inactive) and the IC50 under setting [1] is greater than 25 µM.
Consider `Fc1ccccc1Nc1nc2c(s1)CCc1ccccc1-2`, for which the IC50 was 17.7 µM (WT cells) and 19.1 µM under setting [1].
Take `O=C1/C(=C/c2cccc3ccccc23)CCCc2ccccc21`: the IC50 is, setting by setting: (WT cells) 17.3 µM; under setting [1], greater than 25 µM.
The corresponding values for `CCC(C)(C)NC(=O)C(c1ccc(C)cc1)N(Cc1cccs1)C(=O)c1ccc2c(c1)OCCO2` (centres undefined) are 14.1 µM and greater than 25 µM.
On to `COc1ccc(C2=Nc3cccc4cccc(c34)N2)cc1`, for which the IC50 is > 25 µM (inactive) (WT cells) and greater than 25 µM under setting [1].
`CCOc1ccccc1CNC(=O)c1ccc(Sc2ccc(Cl)cc2)c(NC(C)=O)c1`: the IC50 was 16.9 µM (WT cells) and greater than 25 µM under setting [1].
With `COc1ccc(N2CCN(CCNC(=O)c3nnc(Cc4c(F)cccc4Cl)o3)CC2)cc1`, the IC50 by setting is: (WT cells) > 25 µM (inactive); under setting [1], greater than 25 µM.
In the case of `O=C(Cc1ccc(Cl)cc1)Nc1ccccc1CO`, the IC50 is, setting by setting: (WT cells) > 25 µM (inactive); under setting [1], greater than 25 µM.
Consider `CCOC(=O)c1ccc2c(c1)n(CC)c(/C=C/N(C)c1ccccc1)[n+]2CC`, for which the IC50 by setting is: (WT cells) > 25 µM (inactive); under setting [1], greater than 25 µM.
Take `Cn1c(=O)c2c(nc(N3CCCCCC3)n2Cc2cccc3ccccc23)n(C)c1=O`: the IC50 by setting is: (WT cells) 10 µM; under setting [1], greater than 25 µM.
For `CCC1Oc2ccc(C)cc2N(CC(=O)N(Cc2ccc(C)o2)C2CCCC2)C1=O` (centres undefined) the same measures were > 25 µM (inactive) and greater than 25 µM.
As to `COC(=O)CN1C(c2cccc(Cl)c2)=Nc2ccc(Cl)cc2C1c1ccccc1` (centres undefined), the half-maximal inhibitory concentration (IC50) is 7.73 µM (WT cells) and 24 µM under setting [1].
As for `Cc1ccc2nc(NCCCNC(=O)c3cnccn3)c(C#N)cc2c1`, the IC50 is > 25 µM (inactive) (WT cells) and greater than 25 µM under setting [1].
For `COc1ccc(/C=N/NC(=O)c2ccn[nH]2)cc1COc1ccc(Cl)cc1Cl`, the concentration for half-maximal inhibition (IC50) is, setting by setting: (WT cells) 23 µM; under setting [1], greater than 25 µM.
`COc1ccc(NC(=O)CN(c2ccc(C)cc2)S(C)(=O)=O)c(OC)c1`: the IC50 by setting is: (WT cells) > 25 µM (inactive); under setting [1], greater than 25 µM.
Take `COC(=O)[C@H](Cc1ccccc1)NC(=O)O[C@H]1C(=O)c2ccc(OC)cc2O[C@@H]1c1ccc2c(c1)OCO2`: the IC50 by setting is: (WT cells) 12.9 µM; under setting [1], greater than 25 µM.
As to `Cc1ccc(CNC(=O)CCNC(=O)c2ccco2)cc1`, the IC50 by setting is: (WT cells) > 25 µM (inactive); under setting [1], greater than 25 µM.
`Cc1ccc(N(CC(O)Cn2c3ccccc3c3ccccc32)S(C)(=O)=O)c(C)c1` (centres undefined): the IC50 reads like this: (WT cells) 18.8 µM; under setting [1], greater than 25 µM.
In the case of `CCOC(=O)C1=CN(c2cccc(F)c2)C=C(C(=O)OCC)C1c1cc(OC)c(O)c([N+](=O)[O-])c1`, the IC50 (WT cells) is 5.68 µM and the IC50 under setting [1] is greater than 25 µM.
Turning to `Cc1cc(Nc2nc(Cl)c(Cl)cc2Cl)n(-c2ccccc2)n1`, the IC50 was 24.1 µM (WT cells) and greater than 25 µM under setting [1].
As to `C=CCOc1c(Br)cc(/C=N/Nc2ccc(C(=O)O)cc2)cc1OCC`, the IC50 runs as follows: (WT cells) 22.1 µM; under setting [1], greater than 25 µM.
Regarding `O=C(Nc1cc(Cl)ccc1Oc1ccccc1)c1ccc(F)cc1`, the IC50 runs as follows: (WT cells) 22.7 µM; under setting [1], greater than 25 µM.
With `Cc1nc(N2CCCCC2)c2c(C)c(C(=O)Nc3cccc(C(F)(F)F)c3)sc2n1`, the IC50 reads like this: (WT cells) 9.62 µM; under setting [1], greater than 25 µM.
`Cc1cc(NCCCn2ccnc2)n2ncc(-c3ccc(Cl)cc3)c2n1`: the IC50 is 11.1 µM (WT cells) and 17.9 µM under setting [1].
Turning to `CC1(C)C(=O)OC(c2cccn2-c2cccc([N+](=O)[O-])c2)C2(CCCCC2)C1=O` (centres undefined), the IC50 (WT cells) was 9.07 µM and the IC50 under setting [1] is 11.1 µM.
As to `Cc1nc2ccccc2nc(C)c1=NOCc1ccc(Cl)cc1Cl`, the IC50 is, setting by setting: (WT cells) 24.2 µM; under setting [1], greater than 25 µM.
For `Cc1ccc(C)c(N2CCN(C(=O)C3CCCCN3S(=O)(=O)c3ccc(F)cc3)CC2)c1` (centres undefined) the same measures were 18.3 µM and greater than 25 µM.
With `O=C(Nc1cc(S(=O)(=O)N2CCCCC2)ccc1Cl)c1ccccc1NS(=O)(=O)c1ccc(F)cc1`, the IC50 reads like this: (WT cells) 23.4 µM; under setting [1], greater than 25 µM.
The corresponding values for `CCOC(=O)CC(=O)CSc1nc(C)nc2c1oc1ccccc12` are > 25 µM (inactive) and greater than 25 µM.
As to `c1ccc(-c2[nH]c(-c3ccccc3)[n+](CC3CO3)c2-c2ccccc2)cc1` (centres undefined), the IC50 was 18.8 µM (WT cells) and greater than 25 µM under setting [1].
Take `O=C1N(O)C2(C=CCCC2)/C(=N\O)C12CCCCC2` (centres undefined): the IC50 (WT cells) was > 25 µM (inactive) and the IC50 under setting [1] was greater than 25 µM.
Consider `CCC(C)c1ccc(NC(=S)Nc2ccc(OC)cc2C)cc1` (centres undefined), for which the IC50 is 18.5 µM (WT cells) and greater than 25 µM under setting [1].
In the case of `CC(C)N1C(=O)/C(=C\c2nc3ccccc3c(=O)n2-c2ccccc2)c2ccccc21`, the IC50 (WT cells) was 18.8 µM and the IC50 under setting [1] was greater than 25 µM.
For `N#C[C@H]1[C@H](c2ccccc2)[C@](C#N)(C(=O)c2ccccc2)[C@@H]2C=Cc3ccccc3N21`, the IC50 by setting is: (WT cells) > 25 µM (inactive); under setting [1], greater than 25 µM.
For `COc1ccc(OC)c(C(=O)c2coc3ccc(OC)cc23)c1` the same measures were > 25 µM (inactive) and greater than 25 µM.
Take `O=C1CCCCC1C(Nc1ccc(Br)cc1)c1ccccc1` (centres undefined): the IC50 (WT cells) is 20.5 µM and the IC50 under setting [1] is greater than 25 µM.
In the case of `CC(C)(C)[C@H]1C=C(C(=O)N2CCN(Cc3ccc4c(c3)OCO4)CC2)O[C@@H](OCc2ccc(CO)cc2)C1`, the IC50 is 10 µM (WT cells) and greater than 25 µM under setting [1].
`O=C(Nc1ccc(C(F)(F)F)cc1)c1cc(S(=O)(=O)NCC2COc3ccccc3O2)ccc1F` (centres undefined): the IC50 is 15.2 µM (WT cells) and greater than 25 µM under setting [1].
Regarding `CNC(=S)NCCC(c1ccccc1)c1ccccc1`, the IC50 was > 25 µM (inactive) (WT cells) and greater than 25 µM under setting [1].
The corresponding values for `O=C(C1=C[C@H](c2csc3ccccc23)C[C@H](OCc2ccc(CO)cc2)O1)N1CCN(Cc2ccc3c(c2)OCO3)CC1` are 2.16 µM and 10.5 µM.
Consider `Cn1c(=O)cc(OCCCC(=O)N2CCN(c3ccccc3)CC2)c2ccccc21`, for which the IC50 by setting is: (WT cells) > 25 µM (inactive); under setting [1], greater than 25 µM.
As for `Cc1cccc(OCC(=O)Nc2nc3ccc([N+](=O)[O-])cc3s2)c1C`, the IC50 is, setting by setting: (WT cells) > 25 µM (inactive); under setting [1], greater than 25 µM.
The corresponding values for `Oc1ccc2ccccc2c1/C=N/c1nc2c(s1)CCCC2` are > 25 µM (inactive) and greater than 25 µM.
For the compound `COCCNC(=O)c1cccc(Nc2nc(-c3ccccc3)c3cc(Cl)ccc3n2)c1`, the half-inhibitory concentration (IC50) is, setting by setting: (WT cells) 19.4 µM; under setting [1], greater than 25 µM.
The corresponding values for `O=C1c2ccccc2OC2(C=Cc3ccccc3O2)N1Cc1ccccc1` (centres undefined) are 5.8 µM and greater than 25 µM.
The corresponding values for `CCOc1ccc(-c2[nH]ncc2Oc2ccccc2OCC)c(O)c1` are > 25 µM (inactive) and greater than 25 µM.
The corresponding values for `COc1ccccc1N1CCN(CC(=O)Nc2ccc(Cl)c(C(F)(F)F)c2)CC1` are 20.2 µM and greater than 25 µM.
For `CC(C)CCN(C(=S)Nc1cccc(F)c1)C(C)c1cccs1` (centres undefined), the IC50 is 19.4 µM (WT cells) and greater than 25 µM under setting [1].
The corresponding values for `O=C(N/N=C/c1c[nH]c2ccccc12)C1CC1(c1ccccc1)c1ccccc1` (centres undefined) are > 25 µM (inactive) and greater than 25 µM.
Turning to `COc1cc(OC)c2c(c1)C(=O)c1cc(OC)cc(OC)c1C2=O`, the IC50 is > 25 µM (inactive) (WT cells) and greater than 25 µM under setting [1].
The corresponding values for `COCCCNC(=O)CS(=O)(=O)Cc1nc(-c2cccc(OC)c2)oc1C` are > 25 µM (inactive) and greater than 25 µM.
Regarding `Cc1nn(C(C)(C)C)c(OC(=O)c2cccs2)c1Sc1ccccc1`, the IC50 is, setting by setting: (WT cells) 22.1 µM; under setting [1], greater than 25 µM.
For `O=c1c2cn[nH]c2nc(SCc2ccccc2F)n1-c1ccc(Br)cc1`, the IC50 (WT cells) is 11.2 µM and the IC50 under setting [1] turned out to be 23.8 µM.
Regarding `CCOc1ccc(Oc2c(/C=N/NC(=O)COc3ccccc3OC)c(C)nn2-c2ccccc2)cc1`, the IC50 was 14.8 µM (WT cells) and greater than 25 µM under setting [1].
The corresponding values for `CCCCN(CCCC)CCNC(=O)Cc1nc2c(c(=O)[nH]c(=O)n2C)n1C` are > 25 µM (inactive) and greater than 25 µM.
For `O=C(c1cc(-c2ccccc2)nc2ccccc12)N1CCCc2ccccc21` the same measures were 13.7 µM and greater than 25 µM.
As to `Cc1ccc(CNCC(O)(c2ccccc2)c2ccc(F)cc2)cc1` (centres undefined), the IC50 by setting is: (WT cells) > 25 µM (inactive); under setting [1], greater than 25 µM.
For `O=S(Cc1ccc(Br)cc1)Cc1nnc(SCc2c(F)cccc2Cl)n1-c1ccccc1` (centres undefined), the IC50 (WT cells) was > 25 µM (inactive) and the IC50 under setting [1] was greater than 25 µM.
For the compound `O=C(O)C1C2C=CC(C2)C1C(=O)Nc1ccc(C(=O)N2CCCCC2)cc1` (centres undefined), the IC50 (WT cells) is > 25 µM (inactive) and the IC50 under setting [1] was greater than 25 µM.
